Target: T1, human recombinant Yes [a.a. 2–543 (end)] (Homo sapiens, UniProt P07947)
T1 construct: human recombinant Yes [a.a; 2–543 (end)]; purchased BPS Bioscience 40488
Assay: ADP-Glo kinase assay, inhibition rates of Yes phosphorylation activity (first and second screening)
Format: biochemical
Settings: 10 μmol L−1 compound; for First screening IR (inhibition rate): mean of n = 4 wells
In short: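 Hits from a first pass were rescreened after re-dissolution from fresh powder. The first pass reported the mean inhibition rate of quadruplicate wells per compound. Activity was that of recombinant human Yes [a.a. 2–543] kinase, read out with the ADP-Glo ADP-detection method.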

T1 sequence (P07947 2-543): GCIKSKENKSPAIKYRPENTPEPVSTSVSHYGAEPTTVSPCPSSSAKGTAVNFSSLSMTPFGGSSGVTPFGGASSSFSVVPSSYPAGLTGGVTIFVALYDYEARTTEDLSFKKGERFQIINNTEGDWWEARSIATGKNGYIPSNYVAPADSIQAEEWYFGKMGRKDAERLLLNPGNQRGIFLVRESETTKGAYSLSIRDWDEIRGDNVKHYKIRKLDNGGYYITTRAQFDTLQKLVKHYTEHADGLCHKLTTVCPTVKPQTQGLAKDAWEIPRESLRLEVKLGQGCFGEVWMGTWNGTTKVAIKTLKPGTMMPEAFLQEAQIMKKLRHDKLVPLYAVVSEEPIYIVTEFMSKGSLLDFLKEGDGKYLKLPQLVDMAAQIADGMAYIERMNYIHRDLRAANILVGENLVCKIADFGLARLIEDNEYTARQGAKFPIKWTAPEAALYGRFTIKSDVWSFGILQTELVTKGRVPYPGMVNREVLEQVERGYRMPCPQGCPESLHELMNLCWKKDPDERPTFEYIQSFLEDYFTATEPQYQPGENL

First screening IR (inhibition rate)	Second screening IR (inhibition rate) (second screening, dissolved from fresh powder, n = 4)	Compound
-2%	–	O=C(NCc1cn2ccsc2n1)C1CC1c1ccccc1C(F)(F)F (stereo not drawn) [Compound Z333170264]
9%	–	CCN(C1CCS(=O)(=O)C1)S(=O)(=O)c1ccc(C)cc1 (stereo not drawn) [Compound Z45467092]
36%	–	N#Cc1ccccc1S(=O)(=O)N1CCN(C(=O)/C=C/c2ccc3c(c2)OCCCO3)CC1 [Compound Z27234574]
-15%	–	COc1ccc(CCN2CC(C(=O)Nc3c(-c4ccccc4)nc4ccc(C)cn34)CC2=O)cc1OC (stereo not drawn) [Compound Z70997275]
2%	–	COc1ccc(-n2c(SCC(=O)N3CCCCCC3)nnc2-c2ccc(Cl)cc2)cc1 [Compound Z19871234]
21%	–	CN(CC(=O)Nc1cccc(F)c1)C(=O)c1cc2ccccc2cc1O [Compound Z26987740]
-7%	–	O=C(COC(=O)c1ccccc1NS(=O)(=O)c1ccc(F)cc1)NC1CCCc2ccccc21 (stereo not drawn) [Compound Z18712040]
12%	–	COc1cccc(OCCN2CCN(c3cc(C(C)(C)C)nc4c(-c5ccc(Cl)cc5)c(C)nn34)CC2)c1 [Compound Z431973470]
-13%	–	CC(=O)N1CC=C(c2ccc(Oc3nc(-c4cccnc4)nc4ccccc34)cc2)CC1 [Compound Z196157908]
-5%	–	CC(C)CN1CCOC(CNC(=O)c2cc3cc(F)ccc3[nH]2)C1 (stereo not drawn) [Compound Z300664804]
-5%	–	Cc1ccc(S(=O)(=O)N2CCN(S(=O)(=O)c3ccc(C)c(C)c3)CC2)cc1C [Compound Z45415135]
-5%	–	O=S(=O)(c1ccccc1Cl)N1CCN(Cc2nc(-c3cccc(C(F)(F)F)c3)no2)CC1 [Compound Z224344580]
64%	–	CC(C(=O)NC(c1ccccc1)c1ccccc1)N1CCN(c2ncnc3c2cnn3C)CC1 (stereo not drawn) [Compound Z238831180]
8%	–	Cc1c(C(=O)NCCSc2ccc(Br)cc2)[nH]c2c1C(=O)CCC2 [Compound Z51996046]
2%	–	CC1CN(C(=O)OC(C)(C)C)C(C)CN1C(=O)Cc1csc(N2CCNC2=O)n1 (stereo not drawn) [Compound Z1579018538]
25%	–	CCOC(=O)/C=c1\s/c(=C/c2ccc(N3CCCCC3)c([N+](=O)[O-])c2)c(=O)n1CC(=O)N1CCC(C)CC1 [Compound Z48712692]
1%	–	Oc1cccc(CN(c2ncnc3ccsc23)C2CC2)c1 [Compound Z826941792]
-18%	–	CN(Cc1ccc(N2CCOCC2)cc1)Cc1c(O)ccc2ccncc12 [Compound Z199499666]

First screening IR (inhibition rate)	Second screening IR (inhibition rate) (second screening, dissolved from fresh powder, n = 4)	Compound
-5%	–	CCN(C1CCS(=O)(=O)C1)S(=O)(=O)c1c(C)noc1C (stereo not drawn) [Compound Z45467189]
8%	–	CN(Cc1ccccc1)c1nc(CN2CCOCC2)nc2sc3c(c12)CCC3 [Compound Z31196583]
5%	–	Cc1ccc(-c2c(C)sc3nc(CN4CCN(CC(=O)N5CCOCC5)CC4)[nH]c(=O)c23)cc1 [Compound Z89215884]
-10%	–	CC(C)c1cccc(NC(=O)CN(C)CC(=O)N2c3ccccc3NC(=O)CC2C)c1 (stereo not drawn) [Compound Z203963094]
5%	–	CCOC(=O)c1c(-c2ccc(F)cc2)csc1NC(=O)CN1CCN(Cc2cc(OC)ccc2OC)CC1 [Compound Z46402002]
2%	–	CCN(C1CCS(=O)(=O)C1)S(=O)(=O)c1ccc(Br)cc1Cl (stereo not drawn) [Compound Z45467139]
-20%	–	O=C(CCc1ccc2ccccc2n1)OCCOc1ccc(S(=O)(=O)N2CCOCC2)cc1 [Compound Z166077876]
6%	–	Cc1cccc(NCC2CCN(c3ncnc4c3cnn4C)C2)n1 (stereo not drawn) [Compound Z990436502]
-9%	–	CCC(C)N(CC(=O)Nc1cccc(C)c1C)C(=O)COC(=O)c1cc(C(C)=O)cn1C (stereo not drawn) [Compound Z152371002]
2%	–	CN(c1ccc(NC(=O)N2CCN(C(=O)c3cccnc3)CC2)cc1F)C1CCCCC1 [Compound Z595406192]
11%	–	CC1C/C(=C/c2ccc(Cl)c([N+](=O)[O-])c2)c2nc3ccccc3c(C(=O)O)c2C1 (stereo not drawn) [Compound Z46107857]
13%	–	O=C(Nc1cc(Cl)cc(Br)c1OC(F)F)C(=O)N1CCCSCC1 [Compound Z754942410]
23%	–	CCC(C)(C)C1C/C(=C/c2ccccc2Br)c2nc3ccccc3c(C(=O)O)c2C1 (stereo not drawn) [Compound Z46116650]
1%	–	COC(=O)Cn1ncc2c(N3CCCCC3CCC(C)C)ncnc21 (stereo not drawn) [Compound Z1419966801]
2%	–	NC(=O)N1CCC(C(=O)N2CCCC2CC2CC3CCC2C3)CC1 (stereo not drawn) [Compound Z1038829842]
-20%	–	CC(C)(C(=O)N1CCN(C(=O)C2CCC(=O)NC2)CC1)c1ccccc1 (stereo not drawn) [Compound Z645877938]
6%	–	CCN1CCC(NC(=O)C2CCN(S(=O)(=O)c3c(C)c(C)cc(C)c3C)CC2)CC1 [Compound Z85145044]
8%	–	C=CCn1c(=O)c2ccccc2n2c(SCC(=O)Nc3ccc(N4CCN(C)CC4)cn3)nnc12 [Compound Z432326346]

Second part, the compound before the results:

Compound	First screening IR (inhibition rate)	Second screening IR (inhibition rate) (second screening, dissolved from fresh powder, n = 4)
Cc1cccc(C(C)C)c1NC(=O)CSc1nc2ccc(Cl)cc2[nH]1 [Compound Z16257955]	4%	–
CCN(C(=O)c1cc(-c2ccccc2)nc2c1cnn2Cc1cccnc1)c1ccccc1 [Compound Z238053762]	-11%	–
O=C(OCC(=O)N1N=C(c2ccc(Cl)cc2)CC1c1ccco1)c1cc(-c2ccco2)nc2ccccc12 (stereo not drawn) [Compound Z18799147]	0%	–
CSc1sc(NC(=O)c2n[nH]c(C(C)C)c2Br)nc1C [Compound Z1143428685]	3%	–
CC(NC(=O)c1ccc(-n2cnc3ccccc32)cc1)c1ccc(S(N)(=O)=O)cc1 (stereo not drawn) [Compound Z87656555]	-5%	–
Cn1c(C(=O)Nc2ccc(NC(=O)c3ccco3)c(Cl)c2)cc2ccccc21 [Compound Z751335838]	55%	–
Cc1ccc(CNc2nc(-c3ccc(O)c(C(N)=O)c3)cs2)cc1 [Compound Z48851233]	10%	–
Cc1oc(-n2cccc2)c(C#N)c1C(=O)Nc1cccc(/C=C/c2ccccn2)c1 [Compound Z89489183]	9%	–
Cl.Nc1ccc(-c2cc(-c3ccccc3)c3cc(Cl)ccc3n2)cc1 [Compound Z56913268]	-5%	–
Cc1cc(C(=O)CSc2nnc(-c3ccc4c(c3)OCO4)n2-c2ccccc2)c(C)n1C [Compound Z16254213]	6%	–
CC(NC(=O)c1ccc2nc[nH]c2c1)c1ccc(F)c(F)c1 (stereo not drawn) [Compound Z28547957]	-1%	–
N#CC(C(=O)CCc1ccc(F)cc1)c1nc2cc(Cl)ccc2c(=O)[nH]1 (stereo not drawn) [Compound Z594627070]	1%	–
Cc1ccc(Cn2nc(C)c(C(=O)OCc3nc(N)nc(Nc4ccccc4)n3)c2Cl)cc1 [Compound Z89857426]	22%	–
CC(Sc1n[nH]c(-c2ccccc2Br)n1)C(=O)Nc1ccc(F)cc1 (stereo not drawn) [Compound Z25191222]	4%	–
COc1cc(/C=N/NC(=O)c2cc(-c3cccnc3)nc3ccccc23)ccc1OCc1ccc(Cl)cc1 [Compound Z49638448]	-1%	–
Cc1ccc(SCc2nc(N)nc(Nc3ccccc3C)n2)cc1C [Compound Z24835676]	-13%	–

Compound	First screening IR (inhibition rate)	Second screening IR (inhibition rate) (second screening, dissolved from fresh powder, n = 4)
NC(=S)c1cc(C(=O)c2ccccc2O)cn2c1nc1ccccc12 [Compound Z235467022]	5%	–
Cc1nn(-c2ccc(Br)cc2)c(C)c1C(=O)Nc1ncn[nH]1 [Compound Z727167436]	-2%	–
NS(=O)(=O)c1cccc(S(=O)(=O)Cl)c1 [Compound Z237480338]	3%	–
Cc1cc(-c2ccccc2)cc2c3ccccc3c3ccccc3[n+]12.[O-][Cl+3]([O-])([O-])[O-] [Compound Z56761787]	4%	–
CCN(C(=O)c1ccc2c(c1)CC(c1ccccc1)OC2=O)c1ncc[nH]1 (stereo not drawn) [Compound Z1474089033]	-8%	–
CSCCC(NC(=O)c1ccco1)C(=O)NCc1ccc(CN(C)C)cc1 (stereo not drawn) [Compound Z102556578]	-3%	–
Cc1ccc(-n2c(C)c(C=O)c3c2CCc2cn(-c4ccccc4)nc2-3)cc1 [Compound Z56788048]	-7%	–
CCN(C1CCS(=O)(=O)C1)S(=O)(=O)c1c(C)c(C)c(C)c(C)c1C (stereo not drawn) [Compound Z45467174]	8%	–
CC(C)c1cc(NS(=O)(=O)c2cc(F)c(Br)cc2F)n[nH]1 [Compound Z1551172092]	5%	–
Cc1ccc2c(c1)/C(=N/n1cnc3ccccc31)C(=O)N2 [Compound Z56789395]	3%	–
O=C(Nc1cccc(Cn2ccnc2)c1)c1cc2c(s1)-c1ccccc1OC2 [Compound Z362662212]	6%	–
Cc1nn(CC(C)C)c2sc(C(=O)Nc3nc(-c4ccccn4)cs3)cc12 [Compound Z29467100]	0%	–
COCCCCCn1ncc2ccc([N+](=O)[O-])cc21 [Compound Z1271542350]	7%	–
Cc1ccc(C(=O)Nc2ccc(OCc3ccccn3)c(F)c2)cn1 [Compound Z1318975474]	-2%	–
COc1c(CNCc2ccc(C(=O)N(C)C)cc2)c(C)nn1C [Compound Z991036884]	27%	-29%
CC(c1ccc(S(N)(=O)=O)cc1)N(C)S(=O)(=O)c1cc(Cl)cc(Cl)c1 (stereo not drawn) [Compound Z65599853]	0%	–

Source: publication PMC5607274, “An iterative compound screening contest method for identifying target protein inhibitors using the tyrosine-protein kinase Yes” (Scientific Reports, 2017)
